From ChEMBL document CHEMBL5291721, “A preclinical secondary pharmacology resource illuminates target-adverse drug reaction associations of marketed drugs” (Nat Commun, 2023) come the findings set out here.

Assay [1] has as its target Gamma-aminobutyric acid receptor subunit alpha-1/alpha-2/beta-2/gamma-2 (Homo sapiens, UniProt P14867+P18507+P47869+P47870). The assay is classed as protein-complex assay.
In a further assay the target is T1, Thromboxane A2 receptor (Homo sapiens, UniProt P21731).
T1 sequence (P21731 whole entry): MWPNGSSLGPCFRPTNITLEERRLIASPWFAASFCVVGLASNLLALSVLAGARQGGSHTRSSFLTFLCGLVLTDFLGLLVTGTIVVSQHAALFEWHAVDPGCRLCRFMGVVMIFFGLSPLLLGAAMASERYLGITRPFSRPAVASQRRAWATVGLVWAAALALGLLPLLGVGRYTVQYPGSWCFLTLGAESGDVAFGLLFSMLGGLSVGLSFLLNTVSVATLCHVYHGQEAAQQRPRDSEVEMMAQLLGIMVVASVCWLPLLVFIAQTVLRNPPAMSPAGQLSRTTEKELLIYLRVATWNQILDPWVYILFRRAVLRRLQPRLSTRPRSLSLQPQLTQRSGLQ
The class given is functional.

Assay [2] addresses T2, Corticotropin-releasing factor receptor 2 (Homo sapiens, UniProt Q13324).
T2 sequence (Q13324 whole entry): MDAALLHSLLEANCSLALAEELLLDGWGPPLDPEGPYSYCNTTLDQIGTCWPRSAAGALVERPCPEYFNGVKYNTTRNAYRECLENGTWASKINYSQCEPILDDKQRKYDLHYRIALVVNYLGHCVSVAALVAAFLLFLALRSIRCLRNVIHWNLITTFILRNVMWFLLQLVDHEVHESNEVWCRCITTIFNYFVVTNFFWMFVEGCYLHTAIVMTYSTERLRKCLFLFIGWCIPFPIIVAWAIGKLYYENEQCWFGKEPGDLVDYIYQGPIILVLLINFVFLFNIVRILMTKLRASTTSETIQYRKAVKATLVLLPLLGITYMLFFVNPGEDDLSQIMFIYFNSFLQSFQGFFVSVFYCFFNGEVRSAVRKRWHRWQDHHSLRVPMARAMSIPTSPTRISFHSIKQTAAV

Assay [3] concerns the target T3, Alpha-1A adrenergic receptor (Homo sapiens, UniProt P35348).
T3 sequence (P35348 whole entry): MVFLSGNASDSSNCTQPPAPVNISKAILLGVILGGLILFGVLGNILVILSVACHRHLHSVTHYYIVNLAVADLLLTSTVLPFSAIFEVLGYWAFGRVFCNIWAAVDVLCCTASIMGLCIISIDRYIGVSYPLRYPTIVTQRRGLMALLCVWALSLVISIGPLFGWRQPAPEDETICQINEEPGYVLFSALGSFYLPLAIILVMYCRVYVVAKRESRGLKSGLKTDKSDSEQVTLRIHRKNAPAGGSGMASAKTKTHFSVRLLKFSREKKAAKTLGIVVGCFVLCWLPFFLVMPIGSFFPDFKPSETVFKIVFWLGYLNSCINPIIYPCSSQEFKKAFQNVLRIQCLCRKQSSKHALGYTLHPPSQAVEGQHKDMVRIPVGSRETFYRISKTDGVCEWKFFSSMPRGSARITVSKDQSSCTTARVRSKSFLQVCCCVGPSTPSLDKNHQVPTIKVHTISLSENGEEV

Assay [4] concerns the target 5-hydroxytryptamine receptor 7 (Homo sapiens, UniProt P34969).
Another assay has as its target Cannabinoid receptor 1 (Homo sapiens, UniProt P21554). The assay is classed as functional.
The target of assay [5] is T4, Muscarinic acetylcholine receptor M5 (Homo sapiens, UniProt P08912).
T4 sequence (P08912 whole entry): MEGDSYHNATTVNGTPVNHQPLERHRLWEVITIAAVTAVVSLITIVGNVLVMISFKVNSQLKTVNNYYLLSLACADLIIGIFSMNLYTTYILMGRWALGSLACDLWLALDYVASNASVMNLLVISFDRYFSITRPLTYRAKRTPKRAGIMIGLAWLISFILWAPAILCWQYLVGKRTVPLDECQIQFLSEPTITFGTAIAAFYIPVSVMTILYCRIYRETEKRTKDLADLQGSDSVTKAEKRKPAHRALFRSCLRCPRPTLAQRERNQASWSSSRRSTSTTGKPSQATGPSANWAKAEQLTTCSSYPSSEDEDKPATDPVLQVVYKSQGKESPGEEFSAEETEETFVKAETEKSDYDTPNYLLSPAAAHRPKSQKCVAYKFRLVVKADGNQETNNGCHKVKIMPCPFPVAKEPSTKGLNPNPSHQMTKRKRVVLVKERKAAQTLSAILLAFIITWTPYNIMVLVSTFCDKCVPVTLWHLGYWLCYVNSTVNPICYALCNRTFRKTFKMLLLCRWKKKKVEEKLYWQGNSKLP

Assay [6] has as its target Beta-3 adrenergic receptor (Homo sapiens, UniProt P13945).
Assay [7] deals with T5, Alpha-2A adrenergic receptor (Homo sapiens, UniProt P08913).
T5 sequence (P08913 whole entry): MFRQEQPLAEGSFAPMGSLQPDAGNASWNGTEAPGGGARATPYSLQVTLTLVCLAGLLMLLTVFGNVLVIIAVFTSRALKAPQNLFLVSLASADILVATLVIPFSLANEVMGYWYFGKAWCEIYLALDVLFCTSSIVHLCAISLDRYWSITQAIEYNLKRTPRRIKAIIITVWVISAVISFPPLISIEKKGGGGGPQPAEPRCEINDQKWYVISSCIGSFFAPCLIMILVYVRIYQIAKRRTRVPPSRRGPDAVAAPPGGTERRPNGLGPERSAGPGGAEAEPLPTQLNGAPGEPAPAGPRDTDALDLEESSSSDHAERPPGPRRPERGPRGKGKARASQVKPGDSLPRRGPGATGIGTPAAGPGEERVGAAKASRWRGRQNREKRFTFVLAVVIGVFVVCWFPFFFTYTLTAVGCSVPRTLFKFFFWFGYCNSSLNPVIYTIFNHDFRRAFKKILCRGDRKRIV
Also: assay procedure not described here.

Cannabinoid receptor 1, sequence (P21554 whole entry): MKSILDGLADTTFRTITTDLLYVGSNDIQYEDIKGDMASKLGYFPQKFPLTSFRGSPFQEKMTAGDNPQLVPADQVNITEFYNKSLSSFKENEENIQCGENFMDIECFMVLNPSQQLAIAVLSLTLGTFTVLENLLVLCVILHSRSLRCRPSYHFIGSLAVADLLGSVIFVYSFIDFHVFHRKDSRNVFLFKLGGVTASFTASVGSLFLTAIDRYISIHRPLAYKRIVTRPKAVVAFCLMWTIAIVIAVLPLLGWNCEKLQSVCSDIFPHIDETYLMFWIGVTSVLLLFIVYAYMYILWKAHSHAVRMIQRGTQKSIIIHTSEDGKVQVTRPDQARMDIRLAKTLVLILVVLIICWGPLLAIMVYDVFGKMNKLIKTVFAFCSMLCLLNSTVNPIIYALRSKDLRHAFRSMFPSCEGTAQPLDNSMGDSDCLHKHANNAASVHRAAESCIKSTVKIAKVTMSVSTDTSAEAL
Gamma-aminobutyric acid receptor subunit alpha-1/alpha-2/beta-2/gamma-2, sequence (P14867 whole entry): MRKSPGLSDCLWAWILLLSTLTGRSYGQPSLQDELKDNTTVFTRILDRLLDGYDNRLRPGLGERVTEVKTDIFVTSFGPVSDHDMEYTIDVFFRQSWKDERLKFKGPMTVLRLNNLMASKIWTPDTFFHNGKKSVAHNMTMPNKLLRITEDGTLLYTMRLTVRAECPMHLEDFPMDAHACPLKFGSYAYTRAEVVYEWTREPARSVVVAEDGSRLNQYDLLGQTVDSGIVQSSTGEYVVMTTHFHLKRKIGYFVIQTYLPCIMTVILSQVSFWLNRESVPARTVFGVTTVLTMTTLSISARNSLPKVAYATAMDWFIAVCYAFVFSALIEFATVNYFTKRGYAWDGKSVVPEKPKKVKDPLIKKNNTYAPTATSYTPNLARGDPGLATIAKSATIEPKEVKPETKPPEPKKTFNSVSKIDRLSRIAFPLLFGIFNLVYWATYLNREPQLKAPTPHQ
Gamma-aminobutyric acid receptor subunit alpha-1/alpha-2/beta-2/gamma-2, sequence (P47870 whole entry): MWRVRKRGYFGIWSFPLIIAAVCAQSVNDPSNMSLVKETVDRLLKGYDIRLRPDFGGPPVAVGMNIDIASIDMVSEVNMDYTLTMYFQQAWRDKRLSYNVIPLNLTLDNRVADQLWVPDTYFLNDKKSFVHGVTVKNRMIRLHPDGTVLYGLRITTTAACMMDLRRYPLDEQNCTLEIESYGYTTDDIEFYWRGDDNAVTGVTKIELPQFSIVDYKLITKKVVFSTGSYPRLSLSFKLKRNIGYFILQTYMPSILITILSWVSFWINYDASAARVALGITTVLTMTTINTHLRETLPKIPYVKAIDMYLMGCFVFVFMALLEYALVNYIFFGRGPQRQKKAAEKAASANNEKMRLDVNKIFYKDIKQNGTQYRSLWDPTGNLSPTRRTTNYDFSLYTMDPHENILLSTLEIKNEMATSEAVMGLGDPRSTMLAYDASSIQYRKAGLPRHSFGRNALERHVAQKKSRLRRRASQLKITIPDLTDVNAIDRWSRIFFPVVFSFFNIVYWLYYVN
Gamma-aminobutyric acid receptor subunit alpha-1/alpha-2/beta-2/gamma-2, sequence (P18507 whole entry): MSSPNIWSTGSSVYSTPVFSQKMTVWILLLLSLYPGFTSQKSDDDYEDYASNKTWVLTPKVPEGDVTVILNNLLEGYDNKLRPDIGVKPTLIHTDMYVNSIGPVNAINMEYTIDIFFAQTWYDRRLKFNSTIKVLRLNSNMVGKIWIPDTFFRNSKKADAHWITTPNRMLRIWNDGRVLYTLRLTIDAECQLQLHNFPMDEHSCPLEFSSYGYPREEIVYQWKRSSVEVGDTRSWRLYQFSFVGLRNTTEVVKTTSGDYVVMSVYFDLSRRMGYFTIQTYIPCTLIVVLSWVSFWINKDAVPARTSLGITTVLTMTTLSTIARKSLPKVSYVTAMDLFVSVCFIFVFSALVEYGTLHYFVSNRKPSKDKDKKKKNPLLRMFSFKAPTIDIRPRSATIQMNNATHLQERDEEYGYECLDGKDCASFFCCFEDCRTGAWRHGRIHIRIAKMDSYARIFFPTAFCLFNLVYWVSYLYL
Gamma-aminobutyric acid receptor subunit alpha-1/alpha-2/beta-2/gamma-2, sequence (P47869 whole entry): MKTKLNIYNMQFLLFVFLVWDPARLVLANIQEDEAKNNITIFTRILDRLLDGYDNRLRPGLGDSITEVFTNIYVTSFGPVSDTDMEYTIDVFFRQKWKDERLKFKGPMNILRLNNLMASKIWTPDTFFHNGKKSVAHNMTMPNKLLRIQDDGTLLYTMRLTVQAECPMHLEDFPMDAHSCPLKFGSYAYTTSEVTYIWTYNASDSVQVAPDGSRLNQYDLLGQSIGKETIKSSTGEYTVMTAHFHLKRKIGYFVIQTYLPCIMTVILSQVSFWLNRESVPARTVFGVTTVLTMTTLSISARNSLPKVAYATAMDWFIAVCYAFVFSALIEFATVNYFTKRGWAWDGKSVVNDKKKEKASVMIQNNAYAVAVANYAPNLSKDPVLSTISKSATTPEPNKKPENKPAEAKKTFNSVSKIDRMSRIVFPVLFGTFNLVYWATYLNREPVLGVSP
Beta-3 adrenergic receptor, sequence (P13945 whole entry): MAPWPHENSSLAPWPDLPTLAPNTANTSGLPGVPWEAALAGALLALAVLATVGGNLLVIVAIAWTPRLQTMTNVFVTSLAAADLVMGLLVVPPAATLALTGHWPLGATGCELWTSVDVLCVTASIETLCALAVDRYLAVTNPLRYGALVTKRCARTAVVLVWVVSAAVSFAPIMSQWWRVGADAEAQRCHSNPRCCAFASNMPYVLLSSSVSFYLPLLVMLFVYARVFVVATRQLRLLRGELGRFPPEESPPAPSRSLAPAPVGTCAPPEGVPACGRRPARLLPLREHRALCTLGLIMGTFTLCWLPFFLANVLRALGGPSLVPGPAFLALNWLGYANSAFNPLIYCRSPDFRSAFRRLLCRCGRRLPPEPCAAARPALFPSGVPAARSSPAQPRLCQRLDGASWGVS
5-hydroxytryptamine receptor 7, sequence (P34969 whole entry): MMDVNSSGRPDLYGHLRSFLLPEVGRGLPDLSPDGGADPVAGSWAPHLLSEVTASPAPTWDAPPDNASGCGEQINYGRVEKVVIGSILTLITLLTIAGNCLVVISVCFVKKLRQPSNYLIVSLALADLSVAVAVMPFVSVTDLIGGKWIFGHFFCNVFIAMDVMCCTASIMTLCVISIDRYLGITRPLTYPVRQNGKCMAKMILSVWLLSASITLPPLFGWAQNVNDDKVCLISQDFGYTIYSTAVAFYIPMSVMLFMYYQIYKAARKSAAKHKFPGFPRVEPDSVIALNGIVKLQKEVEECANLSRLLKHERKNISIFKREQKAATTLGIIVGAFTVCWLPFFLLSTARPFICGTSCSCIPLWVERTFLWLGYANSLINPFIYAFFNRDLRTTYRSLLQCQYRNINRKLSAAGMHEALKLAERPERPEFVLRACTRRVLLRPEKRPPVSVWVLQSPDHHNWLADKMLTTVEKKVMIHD

Broadly, the AC50 is the concentration giving half of the maximal activity seen. Read a high AC50 as activity only at high concentration. The compound `O=C(O)c1cc(O)ccc1O` [GENTISIC ACID] had a half-maximal activity concentration (AC50) in assay [1] above 30 µM.
Still for that read-out and setting: with `OCCN1C[C@H](O)[C@@H](O)[C@H](O)[C@H]1CO` [MIGLITOL] the figure was above 30 µM.
As to `c1ccc([C@H]2CN3CCSC3=N2)cc1` [LEVAMISOLE], the AC50 on Thromboxane A2 receptor is above 30 µM.
On to `CN(C)CCC(c1ccc(Cl)cc1)c1ccccn1` (centres undefined) [CHLORPHENIRAMINE], for which the AC50 is above 30 µM in assay [2]; above 10 µM in [3]; above 10 µM in assay [4]; above 10 µM on Cannabinoid receptor 1; 6.12 µM in assay [5]; above 30 µM in assay [6]. The half-maximal activity concentration (AC50) in assay [7] was above 10 µM.
Take `O=C(OCC(O)CO)c1ccccc1Nc1ccnc2cc(Cl)ccc12` (centres undefined) [GLAFENINE]: the AC50 (on Thromboxane A2 receptor; in assay [1]) was above 30 µM each time.
`CO[C@H]1C[C@@H]2CC[C@@H](C)[C@@](O)(O2)C(=O)C(=O)N2CCCC[C@H]2C(=O)O[C@H]([C@H](C)C[C@@H]2CC[C@@H](O)[C@H](OC)C2)CC(=O)[C@H](C)/C=C(\C)[C@@H](O)[C@@H](OC)C(=O)[C@H](C)C[C@H](C)/C=C/C=C/C=C/1C` [SIROLIMUS]: the AC50 was above 30 µM in [2] and 23.8 µM in [6].
With `C[C@]12CC[C@@H]3c4ccc(O)cc4CC[C@H]3[C@@H]1C[C@@H](O)[C@@H]2O` [ESTRIOL], the AC50 in assay [1] was above 30 µM.
The same measure, in the same setting: with `CCCCCCOc1nsnc1C1=CCCN(C)C1` [XANOMELINE] the figure was above 30 µM; with `CC[C@H]1[C@@H](O)[C@@H]2[C@H](CC[C@]3(C)[C@@H]([C@H](C)CCC(=O)O)CC[C@@H]23)[C@@]2(C)CC[C@@H](O)C[C@@H]12` [OBETICHOLIC ACID], above 30 µM.
As for `CCCN1C[C@H](CSC)C[C@@H]2c3cccc4[nH]cc(c34)C[C@H]21` [PERGOLIDE], the results for the half-maximal activity concentration (AC50) in assay [2] and in assay [6] were above 30 µM and 20.8 µM, respectively.
Compound `CC(C)(S)[C@@H](N)C(=O)O` [PENICILLAMINE] displayed an AC50 in assay [1] above 30 µM.
`CN(C)CCN1C(=O)c2ccccc2N(C)c2ccccc21` [DIBENZEPIN] showed an AC50 in assay [1] above 30 µM.
Same read-out and setting: with `O=C(CCNNC(=O)c1ccncc1)NCc1ccccc1` [NIALAMIDE] the figure was above 30 µM.
For the compound `CNC1Cc2ccccc2N(C)c2ccccc21` (centres undefined) [METAPRAMINE], at Thromboxane A2 receptor, the concentration at half-maximal activity (AC50) was above 30 µM.
Take `CC[N+]1(C)[C@@H]2CC(OC(=O)[C@H](CO)c3ccccc3)C[C@H]1[C@@H]1O[C@@H]12` (some centres undefined) [OXITROPIUM]: in assay [1], the half-maximal activity concentration (AC50) was above 30 µM.
As for `CCC(C)n1ncn(-c2ccc(N3CCN(c4ccc(OCC5COC(Cn6cncn6)(c6ccc(Cl)cc6Cl)O5)cc4)CC3)cc2)c1=O` (centres undefined) [ITRACONAZOLE], the AC50 in assay [2] was above 30 µM; in [3], above 10 µM; in assay [4] it was above 10 µM; on Cannabinoid receptor 1 it was above 10 µM; in [5], above 10 µM; in assay [6] it was above 30 µM. The compound also returned an AC50 in assay [7] above 10 µM.
`CC(=O)N[C@@H]1[C@@H](O)[C@H](O)[C@@H](CO)O[C@H]1O` [N-ACETYLGLUCOSAMINE] gave an AC50 in assay [1] above 30 µM.
In the case of `CS(=O)(=O)c1ccc(C2=C(c3ccccc3)C(=O)OC2)cc1` [ROFECOXIB], the AC50 was above 30 µM in assay [2]; above 10 µM in [3]; above 10 µM in [4]; above 10 µM at Cannabinoid receptor 1; above 10 µM in [5]; above 30 µM in assay [6]. Also, the concentration at half-maximal activity (AC50) in assay [7] is above 10 µM; in assay [1] it was above 30 µM.
Take `CC(C)C[C@H]1C(=O)N2CCC[C@H]2[C@]2(O)O[C@](NC(=O)[C@@H]3C=C4c5cccc6[nH]c(Br)c(c56)C[C@H]4N(C)C3)(C(C)C)C(=O)N12` [BROMOCRIPTINE]: the results for the half-maximal activity concentration (AC50) (in assay [2]; in assay [6]; at Thromboxane A2 receptor) were above 30 µM, 18.9 µM and above 30 µM, respectively.
In turn, `C[C@@H](O)[C@H]1C(=O)N2C(C(=O)O)=C(S[C@@H]3CN[C@H](C(=O)N(C)C)C3)[C@H](C)[C@H]12` [MEROPENEM] registered a concentration at half-maximal activity (AC50) on Thromboxane A2 receptor above 300 µM.
Take `Cc1c(C(=O)NN2CCCCC2)nn(-c2ccc(Cl)cc2Cl)c1-c1ccc(Cl)cc1` [RIMONABANT]: the AC50 in [2] is above 30 µM; in [3], 13.7 µM; in assay [4] it was above 10 µM; in assay [5] it was above 10 µM; in assay [6] it was above 30 µM; at Thromboxane A2 receptor it was above 30 µM. This compound returned an AC50 in assay [7] above 10 µM.
Compound `CC(=O)Nc1ccc(O)cc1` [ACETAMINOPHEN] returned a half-maximal activity concentration (AC50) in assay [1] above 30 µM.
Still for that read-out and setting: the figure for `Oc1c(Cl)cc(Cl)c2cccnc12` [CHLOROXINE] is above 30 µM; for `N[C@H](C(=O)O)[C@H](O)c1ccc(O)c(O)c1` [DROXIDOPA] it is above 30 µM.
As for `N[C@@H]1[C@H]2CN(c3nc4c(cc3F)c(=O)c(C(=O)O)cn4-c3ccc(F)cc3F)C[C@@H]12` [TROVAFLOXACIN], the AC50 at Thromboxane A2 receptor was above 30 µM.
As to `C=CCc1ccccc1OCC(O)CNC(C)C` (centres undefined) [ALPRENOLOL], the AC50 in assay [1] is above 0.3 µM.
The same measure, in the same setting: the figure for `CC(C)(C)NC[C@H](O)COc1ccccc1C1CCCC1` [PENBUTOLOL] is above 30 µM.
`CCC1=C(C)CN(C(=O)NCCc2ccc(S(=O)(=O)NC(=O)N[C@H]3CC[C@H](C)CC3)cc2)C1=O` [GLIMEPIRIDE] gave an AC50 in [1] above 30 µM.
Regarding `COc1ccccc1OCC(O)CN1CCN(CC(=O)Nc2c(C)cccc2C)CC1` (centres undefined) [RANOLAZINE], in assay [7], the half-maximal activity concentration (AC50) amounted to 13 µM. In other words, the double-digit micromolar range.
`CC[C@H]1OC(=O)[C@H](C)[C@@H](O[C@H]2C[C@@](C)(OC)[C@@H](O)[C@H](C)O2)[C@H](C)[C@@H](O[C@@H]2O[C@H](C)C[C@H](N(C)C)[C@H]2O)[C@](C)(O)C[C@@H](C)CN(C)[C@H](C)[C@@H](O)[C@]1(C)O` [AZITHROMYCIN]: the AC50 is above 30 µM in assay [2]; above 10 µM in assay [3]; above 10 µM in assay [4]; above 10 µM at Cannabinoid receptor 1; above 10 µM in assay [5]; above 30 µM in assay [6]. The compound also had a concentration at half-maximal activity (AC50) in [7] above 10 µM.
`c1cnc(N2CCN(Cc3ccc4c(c3)OCO4)CC2)nc1` [PIRIBEDIL] yielded an AC50 at Thromboxane A2 receptor above 30 µM.
`COC(c1ccccc1)(c1ccccc1)[C@H](Oc1nc(C)cc(C)n1)C(=O)O` [AMBRISENTAN] displayed a concentration at half-maximal activity (AC50) in assay [1] above 30 µM.
The same measure, in the same setting: the figure for `CCOC(=O)[C@H](CCc1ccccc1)N[C@@H](C)C(=O)N1[C@H](C(=O)O)C[C@H]2CCCC[C@@H]21` [TRANDOLAPRIL] is above 30 µM.
